Here are results for 22 compounds from ChEMBL document CHEMBL1201862, “PubChem BioAssay data set” (2004).

Calls of active or inactive are those of the source.

One data set has as its target Cytochrome P450 2C19 (Homo sapiens, UniProt P33261). Kind of data set: Cytochrome panel assay with activity outcomes. Panel member name: p450-cyp2c19 Compounds with AC50 equal or less than 10 uM are considered active. It counts as functional. As to conditions: read-out: AC50.
The next data set concerns the target Cytochrome P450 2C9 (Homo sapiens, UniProt P11712).
Data set [1] addresses Voltage-dependent T-type calcium channel subunit alpha-1H (Homo sapiens, UniProt O95180). It counts as functional.
Data set [2] addresses T1, DNA dC->dU-editing enzyme APOBEC-3G (Homo sapiens, UniProt Q9HC16). Kind of data set: Dose Response confirmation of small molecule APOBEC3G DNA Deaminase Inhibitors via a fluorescence-based single-stranded DNA deaminase assay. [Related pubchem assays (depositor defined):AID493012, AID493028]. It counts as functional.
For data set [3], the target named is DNA dC->dU-editing enzyme APOBEC-3A (Homo sapiens, UniProt P31941). The data set can be described thus: Dose Response confirmation of small molecule APOBEC3A DNA Deaminase Inhibitors via a fluorescence-based single-stranded DNA deaminase assay. [Related pubchem assays (depositor defined):AID493011, AID493024]. It counts as functional.
Chain of DNA dC->dU-editing enzyme APOBEC-3A (P31941 whole entry): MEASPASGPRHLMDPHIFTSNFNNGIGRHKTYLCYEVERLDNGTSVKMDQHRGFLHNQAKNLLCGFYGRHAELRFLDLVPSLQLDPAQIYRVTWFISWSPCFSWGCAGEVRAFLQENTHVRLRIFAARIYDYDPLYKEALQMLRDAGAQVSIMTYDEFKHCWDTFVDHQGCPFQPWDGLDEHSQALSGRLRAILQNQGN
In data set [4] the target is T1, DNA dC->dU-editing enzyme APOBEC-3G. In kind it is functional.
The next data set addresses Cytochrome P450 3A4 (Homo sapiens, UniProt P08684).
Data set [5] has as its system Vero. The data set can be described thus: cells. It counts as functional, cell-based. As to conditions: Chlorocebus sabaeus.
Data set [6] deals with Vero. The data set can be described thus: cells. It counts as functional. To be noted: Chlorocebus sabaeus.
The test system of data set [7] is HEK293. Kind of data set: inhibition of NOD1-driven NF-kB reporter – cell-based, luminescence, uHTS, primary screen (AID 1578). It counts as functional. To be noted: Homo sapiens.
The test system of data set [8] is HEK293. The data set can be described thus: cells. It counts as functional, cell-based. As to conditions: Homo sapiens.
Data set [9] has as its system HEK293. The data set can be described thus: cells. It counts as functional, cell-based. As to conditions: Homo sapiens. This is another data set of the same source.
In data set [10] the target is Nucleotide-binding oligomerization domain-containing protein 2 (Homo sapiens, UniProt Q9HC29). Kind of data set: inhibition of NOD2-driven NF-kB reporter – cell-based, luminescence, uHTS, HEK293 (AID 1566). It counts as functional.
In data set [11] the test system is HEK293. The data set can be described thus: NOD2 signaling inhibitors in MDP-stimulated cells, cell-based, uHTS, luminescence (AID 2001). To be noted: Homo sapiens. It counts as functional.
The test system of data set [12] is HEK293. The data set can be described thus: cells. In kind it is functional, cell-based. To be noted: Homo sapiens. This is another data set of the same source.
Data set [13] in a line: viability of uninfected HEp-2 cells – cell-based, HTS, cytotoxicity control for RSV inhibitor project, dose response (AID 2410). In kind it is functional. To be noted: human respiratory syncytial virus.
Data set [14] can be described thus: cells. It counts as functional, cell-based.
A short description of data set [15]: cells.
Data set [16] addresses T2, Acyl-homoserine lactone acylase PvdQ (Pseudomonas aeruginosa (strain LESB58), UniProt Q9I194).
T2 sequence (Q9I194 whole entry): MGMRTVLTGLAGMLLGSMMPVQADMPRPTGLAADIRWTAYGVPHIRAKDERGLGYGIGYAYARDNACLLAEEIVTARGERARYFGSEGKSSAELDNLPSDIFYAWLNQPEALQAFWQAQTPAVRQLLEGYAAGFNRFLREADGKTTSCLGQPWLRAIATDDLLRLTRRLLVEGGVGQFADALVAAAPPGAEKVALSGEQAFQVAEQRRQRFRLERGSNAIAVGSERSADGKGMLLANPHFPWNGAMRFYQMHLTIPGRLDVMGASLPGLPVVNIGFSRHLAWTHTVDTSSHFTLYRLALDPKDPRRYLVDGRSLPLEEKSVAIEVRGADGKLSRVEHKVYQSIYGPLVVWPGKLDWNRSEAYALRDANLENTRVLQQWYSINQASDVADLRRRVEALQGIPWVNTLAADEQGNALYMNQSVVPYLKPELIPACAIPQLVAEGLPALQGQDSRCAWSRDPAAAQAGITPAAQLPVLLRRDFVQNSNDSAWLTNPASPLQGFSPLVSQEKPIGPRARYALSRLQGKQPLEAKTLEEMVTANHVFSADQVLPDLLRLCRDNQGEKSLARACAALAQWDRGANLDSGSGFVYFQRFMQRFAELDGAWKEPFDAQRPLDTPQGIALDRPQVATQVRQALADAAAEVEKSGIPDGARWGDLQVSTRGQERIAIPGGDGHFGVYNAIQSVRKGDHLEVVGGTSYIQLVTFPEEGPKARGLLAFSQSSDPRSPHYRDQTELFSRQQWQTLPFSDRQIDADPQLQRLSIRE
The data set can be described thus: PvdQ acylase enzyme activity blockers – biochemical, fluorescence, plate reader and imaging, cherry-picks, dose response (AID 493231).

A further data set has as its target T3, CAAX prenyl protease 2 (Saccharomyces cerevisiae S288c, UniProt Q03530).
T3 sequence (Q03530 whole entry): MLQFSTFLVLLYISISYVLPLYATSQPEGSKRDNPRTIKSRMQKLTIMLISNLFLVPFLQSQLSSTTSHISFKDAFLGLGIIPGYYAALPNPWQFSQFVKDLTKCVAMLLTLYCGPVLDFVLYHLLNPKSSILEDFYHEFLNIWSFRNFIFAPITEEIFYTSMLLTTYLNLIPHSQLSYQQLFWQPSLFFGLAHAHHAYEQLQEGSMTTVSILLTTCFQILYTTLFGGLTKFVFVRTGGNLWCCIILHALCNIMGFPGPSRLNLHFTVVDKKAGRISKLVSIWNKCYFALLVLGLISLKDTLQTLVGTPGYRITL
In kind it is biochemical.

The nature of data set [17]: Trypanosoma cruzi growth suppression in host cells – NIH3T3 host cells, beta-gal luminescence, confirmation (AID 2044).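 Also: intracellular parasites grown in NIH/3T3 mouse fibroblasts as host cells; luminescent beta-galactosidase reporter signal from transgenic T. cruzi replicating inside host cells; inhibitors lower the luminescence signal.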 In kind it is functional, cell-based.
Data set [18] can be described thus: NIH3T3 cell viability loss – ATP luminescence, mouse fibroblasts, counter-screen, dose response (AID 2010).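 Also: cells exposed to compound for about 90 hours before reading.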 It counts as functional, cell-based.
Data set [19] is described as follows: THP-1 cell cytotoxicity, dose response, cytotoxicity control for non-replicating M. tuberculosis project (AID 489025). It counts as functional.
Data set [20] is described as follows: Vero E6 cell cytotoxicity, dose response, cytotoxicity control for non-replicating M. tuberculosis project, secondary assay (AID 492998). As to conditions: Vero C1008. It counts as functional, VeroE6.
Data set [21] has as its target T4, Microphthalmia-associated transcription factor (Homo sapiens, UniProt O75030).
T4 sequence (O75030 whole entry): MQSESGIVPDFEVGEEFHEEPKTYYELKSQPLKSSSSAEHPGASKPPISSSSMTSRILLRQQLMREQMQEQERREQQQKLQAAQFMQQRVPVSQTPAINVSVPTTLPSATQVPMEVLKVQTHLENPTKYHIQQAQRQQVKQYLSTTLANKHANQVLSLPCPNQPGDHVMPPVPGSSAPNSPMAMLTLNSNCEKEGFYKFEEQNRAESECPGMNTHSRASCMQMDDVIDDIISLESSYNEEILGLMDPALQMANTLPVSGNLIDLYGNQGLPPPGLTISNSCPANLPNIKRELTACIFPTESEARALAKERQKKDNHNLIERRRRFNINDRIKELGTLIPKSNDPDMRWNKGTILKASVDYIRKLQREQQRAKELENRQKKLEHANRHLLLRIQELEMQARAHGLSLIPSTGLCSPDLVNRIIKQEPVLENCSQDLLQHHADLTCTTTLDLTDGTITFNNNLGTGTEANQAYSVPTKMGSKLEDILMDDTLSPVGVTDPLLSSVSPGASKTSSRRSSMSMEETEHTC
The data set can be described thus: reducers of TRPM1 reporter luminescence, concentration series – cell-based, SK-MEL-5, cherry-picked, set 3, MITF inhibitor project, dose response (AID 493073).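 Also: SK-MEL-5 melanoma cells with luciferase driven by the MITF target TRPM1 promoter.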 It counts as functional.

Data set [22] is described as follows: cells. It counts as functional.
The next data set concerns the target Beta-galactosidase (Escherichia coli, UniProt Q8VNN2). The data set can be described thus: detection-enzyme interference by beta-gal modulators – biochemical, E. coli enzyme, set 3, artefact control for CCR6 antagonist project, dose response (AID 504712). It counts as functional.

Chain of Voltage-dependent T-type calcium channel subunit alpha-1H (O95180 whole entry): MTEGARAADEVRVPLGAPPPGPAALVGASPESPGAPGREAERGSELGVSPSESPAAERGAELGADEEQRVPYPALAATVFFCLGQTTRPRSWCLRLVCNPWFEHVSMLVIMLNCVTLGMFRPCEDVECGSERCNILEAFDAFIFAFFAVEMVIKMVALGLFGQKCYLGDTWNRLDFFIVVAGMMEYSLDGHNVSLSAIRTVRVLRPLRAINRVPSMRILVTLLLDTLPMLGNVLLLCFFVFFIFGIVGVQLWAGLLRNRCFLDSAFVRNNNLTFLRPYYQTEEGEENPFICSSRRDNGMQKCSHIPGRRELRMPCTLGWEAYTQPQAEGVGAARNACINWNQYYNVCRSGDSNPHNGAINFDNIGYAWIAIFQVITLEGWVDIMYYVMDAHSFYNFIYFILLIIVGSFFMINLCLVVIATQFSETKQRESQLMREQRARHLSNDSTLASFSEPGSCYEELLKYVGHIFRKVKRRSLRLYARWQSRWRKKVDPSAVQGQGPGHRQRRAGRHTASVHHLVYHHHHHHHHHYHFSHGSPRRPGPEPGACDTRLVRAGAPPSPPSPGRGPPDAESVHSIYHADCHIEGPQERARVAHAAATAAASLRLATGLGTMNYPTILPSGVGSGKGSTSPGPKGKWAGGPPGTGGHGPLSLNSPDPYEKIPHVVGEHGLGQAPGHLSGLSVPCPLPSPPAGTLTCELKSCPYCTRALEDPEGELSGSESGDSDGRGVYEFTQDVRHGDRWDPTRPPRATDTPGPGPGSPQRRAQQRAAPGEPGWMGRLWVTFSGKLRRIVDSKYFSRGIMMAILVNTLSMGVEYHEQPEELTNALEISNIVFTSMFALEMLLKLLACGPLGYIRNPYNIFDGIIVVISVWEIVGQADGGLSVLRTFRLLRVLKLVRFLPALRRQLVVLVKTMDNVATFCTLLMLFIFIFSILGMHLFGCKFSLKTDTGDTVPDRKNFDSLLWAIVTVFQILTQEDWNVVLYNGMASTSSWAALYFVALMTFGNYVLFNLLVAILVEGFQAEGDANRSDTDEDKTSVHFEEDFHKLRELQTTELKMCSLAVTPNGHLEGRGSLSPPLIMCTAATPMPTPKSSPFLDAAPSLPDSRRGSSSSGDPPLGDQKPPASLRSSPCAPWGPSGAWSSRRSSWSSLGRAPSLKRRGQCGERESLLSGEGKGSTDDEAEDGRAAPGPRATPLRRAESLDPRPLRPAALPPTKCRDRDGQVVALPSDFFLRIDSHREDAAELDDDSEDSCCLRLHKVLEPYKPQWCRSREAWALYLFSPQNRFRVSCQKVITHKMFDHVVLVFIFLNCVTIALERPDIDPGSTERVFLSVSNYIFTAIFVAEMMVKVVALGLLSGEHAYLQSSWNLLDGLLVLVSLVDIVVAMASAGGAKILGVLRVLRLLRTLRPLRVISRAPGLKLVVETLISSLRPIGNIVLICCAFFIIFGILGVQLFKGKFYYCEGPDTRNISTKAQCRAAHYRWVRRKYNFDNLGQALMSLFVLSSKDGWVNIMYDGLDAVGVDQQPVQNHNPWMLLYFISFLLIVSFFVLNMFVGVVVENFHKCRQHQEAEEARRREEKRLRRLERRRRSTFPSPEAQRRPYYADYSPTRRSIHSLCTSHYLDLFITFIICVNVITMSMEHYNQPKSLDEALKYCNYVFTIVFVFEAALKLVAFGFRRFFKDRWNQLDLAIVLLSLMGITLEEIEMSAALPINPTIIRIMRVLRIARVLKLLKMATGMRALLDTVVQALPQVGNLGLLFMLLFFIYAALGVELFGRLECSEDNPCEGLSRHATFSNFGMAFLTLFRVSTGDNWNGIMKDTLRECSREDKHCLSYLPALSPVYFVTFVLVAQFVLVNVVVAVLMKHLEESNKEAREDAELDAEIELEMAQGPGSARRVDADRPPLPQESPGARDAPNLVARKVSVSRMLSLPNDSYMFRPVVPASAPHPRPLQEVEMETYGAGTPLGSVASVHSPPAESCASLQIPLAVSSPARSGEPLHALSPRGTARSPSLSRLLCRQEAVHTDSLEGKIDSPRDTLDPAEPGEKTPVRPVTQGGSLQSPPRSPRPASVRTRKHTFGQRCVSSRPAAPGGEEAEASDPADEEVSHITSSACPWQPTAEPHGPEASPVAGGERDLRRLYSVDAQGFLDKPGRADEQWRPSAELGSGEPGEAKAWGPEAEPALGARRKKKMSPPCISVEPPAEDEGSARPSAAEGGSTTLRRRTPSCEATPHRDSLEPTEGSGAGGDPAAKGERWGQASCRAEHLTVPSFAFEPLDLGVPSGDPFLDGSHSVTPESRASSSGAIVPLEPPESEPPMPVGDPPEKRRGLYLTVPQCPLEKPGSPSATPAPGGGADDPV
T1 sequence (Q9HC16 whole entry): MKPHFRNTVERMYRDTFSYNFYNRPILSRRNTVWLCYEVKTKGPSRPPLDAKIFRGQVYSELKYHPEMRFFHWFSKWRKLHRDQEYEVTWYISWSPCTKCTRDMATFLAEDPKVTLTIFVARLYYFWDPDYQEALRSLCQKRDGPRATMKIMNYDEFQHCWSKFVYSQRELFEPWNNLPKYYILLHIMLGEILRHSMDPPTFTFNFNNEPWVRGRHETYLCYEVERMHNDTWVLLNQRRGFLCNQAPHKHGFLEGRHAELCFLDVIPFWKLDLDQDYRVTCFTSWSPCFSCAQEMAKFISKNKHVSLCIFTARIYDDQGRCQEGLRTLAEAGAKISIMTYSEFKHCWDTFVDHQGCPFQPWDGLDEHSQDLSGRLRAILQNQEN
Chain of Cytochrome P450 2C9 (P11712 whole entry): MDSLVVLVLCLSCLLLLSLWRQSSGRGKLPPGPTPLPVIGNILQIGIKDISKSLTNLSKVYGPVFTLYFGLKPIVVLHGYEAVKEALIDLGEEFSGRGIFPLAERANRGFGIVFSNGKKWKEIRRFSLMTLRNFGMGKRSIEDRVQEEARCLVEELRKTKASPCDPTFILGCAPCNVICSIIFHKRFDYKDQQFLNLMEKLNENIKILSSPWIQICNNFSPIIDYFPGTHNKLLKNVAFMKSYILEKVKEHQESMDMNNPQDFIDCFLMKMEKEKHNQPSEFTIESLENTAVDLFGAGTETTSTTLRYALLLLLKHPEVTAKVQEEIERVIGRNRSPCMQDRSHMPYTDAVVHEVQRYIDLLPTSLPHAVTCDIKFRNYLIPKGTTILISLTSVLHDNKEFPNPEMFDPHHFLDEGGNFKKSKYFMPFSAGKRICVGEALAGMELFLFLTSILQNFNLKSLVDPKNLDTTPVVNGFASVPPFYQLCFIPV
Chain of Cytochrome P450 3A4 (P08684 whole entry): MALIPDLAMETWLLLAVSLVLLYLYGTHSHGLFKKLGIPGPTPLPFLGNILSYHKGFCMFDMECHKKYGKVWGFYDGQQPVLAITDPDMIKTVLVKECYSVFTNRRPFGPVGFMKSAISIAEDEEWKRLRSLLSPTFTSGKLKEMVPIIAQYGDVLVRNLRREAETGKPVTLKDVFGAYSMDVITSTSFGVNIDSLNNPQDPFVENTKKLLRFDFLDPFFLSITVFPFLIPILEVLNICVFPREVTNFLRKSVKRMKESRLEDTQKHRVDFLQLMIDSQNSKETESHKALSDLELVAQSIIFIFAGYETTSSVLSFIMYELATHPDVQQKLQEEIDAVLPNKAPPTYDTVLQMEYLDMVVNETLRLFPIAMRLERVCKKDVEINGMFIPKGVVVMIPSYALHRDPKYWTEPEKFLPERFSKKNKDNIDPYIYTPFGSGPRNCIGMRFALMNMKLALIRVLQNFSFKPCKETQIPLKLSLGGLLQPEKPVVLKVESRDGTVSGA
Chain of Beta-galactosidase (Q8VNN2 whole entry): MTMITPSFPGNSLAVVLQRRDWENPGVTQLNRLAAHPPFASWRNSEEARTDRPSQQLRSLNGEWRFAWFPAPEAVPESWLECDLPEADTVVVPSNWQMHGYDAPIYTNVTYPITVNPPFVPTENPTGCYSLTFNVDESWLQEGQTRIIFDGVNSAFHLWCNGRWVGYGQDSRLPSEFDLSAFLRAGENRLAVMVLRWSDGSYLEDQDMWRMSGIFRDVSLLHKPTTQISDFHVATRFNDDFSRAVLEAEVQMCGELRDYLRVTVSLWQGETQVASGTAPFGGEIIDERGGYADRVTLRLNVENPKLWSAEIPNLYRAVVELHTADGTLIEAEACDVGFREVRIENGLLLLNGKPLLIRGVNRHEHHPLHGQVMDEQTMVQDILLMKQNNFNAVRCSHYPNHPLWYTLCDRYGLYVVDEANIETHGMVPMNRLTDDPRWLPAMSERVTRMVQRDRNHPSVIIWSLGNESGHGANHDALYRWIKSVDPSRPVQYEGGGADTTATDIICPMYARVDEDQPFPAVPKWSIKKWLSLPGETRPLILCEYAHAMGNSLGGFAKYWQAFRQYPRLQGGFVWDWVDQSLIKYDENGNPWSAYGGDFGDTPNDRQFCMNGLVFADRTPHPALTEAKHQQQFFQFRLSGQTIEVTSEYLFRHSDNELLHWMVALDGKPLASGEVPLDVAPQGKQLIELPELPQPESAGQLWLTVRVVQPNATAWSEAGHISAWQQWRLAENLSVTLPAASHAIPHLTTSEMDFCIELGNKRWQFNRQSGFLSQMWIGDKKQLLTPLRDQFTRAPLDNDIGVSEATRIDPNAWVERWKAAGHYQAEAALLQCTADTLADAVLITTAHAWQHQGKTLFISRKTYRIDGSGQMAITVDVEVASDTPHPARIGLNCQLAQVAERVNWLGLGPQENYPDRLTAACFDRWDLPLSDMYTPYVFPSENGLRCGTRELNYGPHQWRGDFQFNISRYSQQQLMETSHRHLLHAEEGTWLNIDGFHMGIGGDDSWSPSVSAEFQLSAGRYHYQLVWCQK

On to `COc1cc(NC(=O)C2CCN(S(=O)(=O)c3cccc4nonc34)CC2)cc(OC)c1`, for which the AC50 – broadly, the concentration at which the activity in the assay is half-maximal – on Cytochrome P450 2C19 was 15.8 µM (inconclusive); on Cytochrome P450 2C9, “inconclusive”.

On to `O=P(Nc1ccccc1Cl)(c1ccccc1)c1nc2c(s1)CCCC2` (stereo not given), for which the concentration giving a half-maximal response (EC50) (as a rule, the concentration needed to bring the measured effect to its halfway point) in [1] was 5.95 µM (active).

As for `CCN(CC)C(=O)CSc1nc2c(sc(=S)n2-c2ccccc2)c(=O)n1-c1ccc(OC)cc1OC`, the IC50 (usually the point on the concentration scale where inhibition reaches its midpoint) in data set [2] was 51.9 µM (active).

As to `CN1CCN(S(=O)(=O)c2ccc(C3CCCCC3)cc2)CC1`, the 50% inhibitory concentration (IC50) in [3] is 9.2 µM (active); in data set [4], 16.8 µM (active).

With `CN1CCN(c2ncncc2-c2ccc(N(C)C)cc2)CC1`, the AC50 was 2 µM (inconclusive) on Cytochrome P450 3A4 and “inconclusive” on Cytochrome P450 2C9.

As to `CCCN(CCC)CCNC(=O)C1CCN(Cc2nc(-c3ccc(Cl)cc3)oc2C)CC1`, the half-inhibitory concentration (IC50) in the data set with Vero [5] was 10.8 µM (active). Also, the cytotoxic concentration (CC50) (as a rule, the concentration at which the toxic effect on the cells reaches its halfway point) with Vero [6] was > 25 µM (active).

Regarding `CCOc1ccccc1-n1nnnc1SCC(=O)Nc1cc(C)on1`, the AC50 at Cytochrome P450 3A4 is 3.98 µM (inconclusive); at Cytochrome P450 2C9, “inconclusive”.

Consider `Cc1oc(-c2cccc(Cl)c2)nc1CN1CCC(C(=O)NCc2ccco2)CC1`, for which the 50% effective concentration (EC50) in data set [1] was 5.8 µM (active).

Take `Cc1c(Nc2c3ccccc3nc3ccccc23)c(=O)n(-c2ccccc2)n1C`: the EC50 (in the data set on HEK293 [7]; in [10]) was > 20 µM (inactive) in each case. The IC50 in the data set with HEK293 [8], in the data set on HEK293 [9], with HEK293 [11] and with HEK293 [12] was > 20 µM (inactive) each time.

With `Cc1ccc2c(c1)cc(C(=O)NCc1ccccc1)n2C`, the 50% cytotoxic concentration (CC50) in data set [13] is 44.9 µM (active). Besides, in the data set “cells [14]”, the EC50 is > 350 µM (not active). For the same compound, the figures for the 50% inhibitory concentration (IC50) in the data set on Vero [5] and in “cells [15]” were 17.8 µM (active) and 24 µM (active), respectively.

On to `O=[N+]([O-])c1ccc(N2CCCCC2)nc1`, for which the AC50 in data set [16] was 3.98 µM (active).

As to `O=C(CCC1COc2ccccc2O1)NCC1COc2ccccc2O1` (stereo not given), the concentration giving a half-maximal response (EC50) in [1] is 1.77 µM (active).

As for `C[N+](C)(C)c1ccccc1`, the IC50 is 2.16 µM (active) in [3] and 3.33 µM (active) in data set [4].

As for `CN1C(=O)/C(=C/c2cccc(Cl)c2)Sc2ccc(C(=O)N3CCOCC3)cc21`, the AC50 on CAAX prenyl protease 2 is 5.96 µM (active).

For the compound `O=C(NC1CC1)c1cc2cc3ccccc3nc2s1`, the concentration at half-maximal activity (AC50) in [16] was 45.7 µM (active).

As to `COc1ccccc1Nc1ncnc2c1c(C)c(C)n2CCCN(C)C`, the EC50 in data set [17] is 0.156 µM (active); in [18], 4.51 µM (active). Besides, the concentration for half-maximal inhibition (IC50) with Vero [5] was 23.2 µM (active). The cytotoxic concentration (CC50) in the data set on Vero [6] is > 25 µM (active).

Consider `Cc1ccc(-n2nnnc2CNC(=O)c2ccc([N+](=O)[O-])o2)cc1C`, for which the figures for the concentration for a half-maximal effect (EC50) in data set [17] and in [18] were 0.145 µM (active) and > 30 µM (not active), respectively. Moreover, the results for the cytotoxic concentration (CC50) in data set [19] and in data set [20] were 22.5 µM (active) and 12.1 µM (active), respectively. Moreover, in [21], the AC50 was 9.72 µM (active). In “cells [22]”, the 50% inhibitory concentration (IC50) was 8.5 µM (active).

For the compound `O=[N+]([O-])c1ccc(NN=Cc2ccccc2O)nc1`, on Beta-galactosidase, the IC50 was 46 µM (inactive).

As for `C[N+]1(CCOC(=O)C2(c3ccccc3)CCCC2)CCCCC1`, the half-maximal inhibitory concentration (IC50) was 3.89 µM (active) in data set [3] and 3.57 µM (active) in data set [4].

Take `COc1ccc(OC)c(Cc2nnc(CCC(=O)N3CCN(C4CCCC4)CC3)o2)c1`: the AC50 at CAAX prenyl protease 2 is 7.48 µM (active).

Regarding `COc1ccc(N2CCN(C(=O)CN(Cc3ccc(Cl)cc3)S(C)(=O)=O)CC2)cc1`, the concentration for a half-maximal effect (EC50) in data set [1] is 11.3 µM (active).

In the case of `CNc1nc(-c2ccc(N(C)C)cc2)nc2ccccc12`, the half-maximal activity concentration (AC50) result at Cytochrome P450 2C9 is on record as “inconclusive”.
